The source of these data is ChEMBL document CHEMBL1136860, “Synthesis and 5-lipoxygenase inhibitory activity of new cinnamoyl and caffeoyl clusters” (Bioorg Med Chem Lett, 2009).

Calls of active or inactive are those of the source. The rule behind the calls is not given here.

Assay type in all cases: cell-based
In test [1] the target is T1, Polyunsaturated fatty acid 5-lipoxygenase (Homo sapiens) (UniProt P09917).
T1 sequence (whole entry): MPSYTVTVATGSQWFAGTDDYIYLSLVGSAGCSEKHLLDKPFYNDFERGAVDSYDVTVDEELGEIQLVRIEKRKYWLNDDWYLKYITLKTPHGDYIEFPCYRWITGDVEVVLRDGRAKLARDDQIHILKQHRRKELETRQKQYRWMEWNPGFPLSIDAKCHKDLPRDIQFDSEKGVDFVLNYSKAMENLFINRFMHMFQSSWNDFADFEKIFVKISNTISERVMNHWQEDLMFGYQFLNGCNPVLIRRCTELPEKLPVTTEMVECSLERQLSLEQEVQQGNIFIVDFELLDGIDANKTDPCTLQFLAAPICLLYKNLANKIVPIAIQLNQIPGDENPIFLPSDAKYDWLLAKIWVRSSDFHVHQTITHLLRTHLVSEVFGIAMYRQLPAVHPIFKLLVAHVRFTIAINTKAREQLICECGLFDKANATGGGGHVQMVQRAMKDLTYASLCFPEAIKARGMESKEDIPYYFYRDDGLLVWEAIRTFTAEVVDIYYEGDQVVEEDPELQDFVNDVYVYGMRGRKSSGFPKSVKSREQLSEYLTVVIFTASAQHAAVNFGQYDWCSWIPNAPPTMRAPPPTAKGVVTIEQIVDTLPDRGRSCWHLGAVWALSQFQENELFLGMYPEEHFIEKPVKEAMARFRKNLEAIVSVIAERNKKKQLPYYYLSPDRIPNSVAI
Put plainly: Inhibition of human 5LOX expressed in HEK293 cells at 1 uM.

The target of test [2] is T2, Polyunsaturated fatty acid 5-lipoxygenase (Homo sapiens, UniProt P09917).
T2 sequence (P09917 whole entry): T1 sequence (whole entry)
The test can be described thus: Inhibition of human 5LOX expressed in HEK293 cells.

For test [3], the target named is T1, Polyunsaturated fatty acid 5-lipoxygenase (Homo sapiens). The test can be described thus: Ratio of IC50 of caffeic acid to IC50 of compound for human 5LOX expressed in HEK293 cells.

Take `O=C(/C=C/c1ccccc1)OCCn1cc(COC(=O)/C=C/c2ccc(O)c(O)c2)nn1`: the result in test [1] was Active.
As usually defined, the IC50 is the concentration that inhibits the measured activity by half. Read a high IC50 as lower potency. For `O=C(/C=C/c1ccc(O)c(O)c1)OCCn1cc(COC(=O)/C=C/c2ccc(O)c(O)c2)nn1`, the outcome in test [1] was Active. In test [2], this compound registered an IC50 of 740 nM. In addition, in test [3], the Ratio IC50 stood at 16.8.
What is called inhibition is how much of the control response was suppressed. A low value points to little suppression. Take `O=C(/C=C/c1ccc(O)c(O)c1)OCc1cn(CC(Cn2cc(COC(=O)/C=C/c3ccc(O)c(O)c3)nn2)(Cn2cc(COC(=O)/C=C/c3ccc(O)c(O)c3)nn2)Cn2cc(COC(=O)/C=C/c3ccc(O)c(O)c3)nn2)nn1`: the inhibition in test [1] came to 92%. In test [2], this compound showed an IC50 of 660 nM. Besides, the Ratio IC50 in test [3] was determined as 10.1.
On to `O=C(/C=C/c1ccc(O)c(O)c1)OCc1cn(CC(COCC(Cn2cc(COC(=O)/C=C/c3ccc(O)c(O)c3)nn2)(Cn2cc(COC(=O)/C=C/c3ccc(O)c(O)c3)nn2)Cn2cc(COC(=O)/C=C/c3ccc(O)c(O)c3)nn2)(Cn2cc(COC(=O)/C=C/c3ccc(O)c(O)c3)nn2)Cn2cc(COC(=O)/C=C/c3ccc(O)c(O)c3)nn2)nn1`, for which the result in test [1] was Active.
On to `O=C(/C=C/c1ccc(O)c(O)c1)OCCn1cc(COC(=O)/C=C/c2ccccc2)nn1`, for which, in test [1], the result was Active. For the same compound, half-maximal inhibition in test [2] (IC50) was put at 680 nM. Besides, in test [3], the Ratio IC50 is 36.7.
For the compound `O=C(/C=C/c1ccc(O)c(O)c1)OCCn1cc(COCC(COCc2cn(CCOC(=O)/C=C/c3ccc(O)c(O)c3)nn2)(COCc2cn(CCOC(=O)/C=C/c3ccc(O)c(O)c3)nn2)COCc2cn(CCOC(=O)/C=C/c3ccc(O)c(O)c3)nn2)nn1`, the outcome in test [1] was Active.
In test [1], `O=C(/C=C/c1ccc(O)c(O)c1)OCc1cn(CC(CO)(Cn2cc(COC(=O)/C=C/c3ccc(O)c(O)c3)nn2)Cn2cc(COC(=O)/C=C/c3ccc(O)c(O)c3)nn2)nn1` registered an inhibition of 91%. Moreover, the IC50 in test [2] was found to be 790 nM. The Ratio IC50 in test [3] turned out to be 10.5.
